Assays:
[1] = test system: common (oilseed) sunflower; experiment: Test C pre-/postemergence herbicide test; assay type: in vivo, Helianthus annuus; settings: for Plant response rating, Sunflower / Plant response rating (0 = no effect, 100 = complete control), Sunflower: preemergence; for Sunflower plant response rating: Preemergence, scale 0 to 100, 0 no effect, 100 complete control
How it was run: (§1)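 Seeds were planted and sprayed preemergence with test chemicals in a non-phytotoxic solvent mixture containing surfactant; postemergence treatments went onto plants 2 to 18 cm tall (1- to 4-leaf stage). After 12 to 14 days in a greenhouse, injury was rated visually against untreated controls on a 0–100 scale.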

lambsquarters [2] = experiment: Test B pre-/postemergence herbicide test; assay type: in vivo, Chenopodium album
How it was run: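 Visual rating, 0 (no effect) to 100 (complete control), versus untreated controls after 13–15 d in greenhouse. Pre- and postemergence applications (postemergence plants 2–18 cm, 1–4 leaves); flooded paddy arm at 2-leaf stage. Compounds in non-phytotoxic solvent plus surfactant.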

lambsquarters [3] = experiment: Test C pre-/postemergence herbicide test; assay type: in vivo, Chenopodium album; settings: for Lambsquarters plant response rating: Preemergence, scale 0 to 100, 0 no effect, 100 complete control
How it was run: as §1

[4] = test system: smallflower umbrella sedge; experiment: Test C flooded paddy test; assay type: in vivo, Cyperus difformis; settings: for Plant response rating, Sedge, Umbrella: 500 g ai/ha, visual rating after 12 to 14 days
johnsongrass = experiment: Test C pre-/postemergence herbicide test; assay type: in vivo, Sorghum halepense; settings: for Johnsongrass plant response rating: Preemergence
How it was run: as §1

[5] = 500 g ai/ha, scale 0 to 100 (0 no effect, 100 complete control), visual, 12 to 14 days
[6] = 125 g ai/ha, visual rating, scale 0 (no effect) to 100 (complete control), postemergence
[7] = 500 g ai/ha, visual rating, 0 = no effect, 100 = complete control, preemergence
[8] = postemergence, 500 g ai/ha, scale 0 to 100, 0 is no effect, 100 is complete control
[9] = 62 g ai/ha, preemergence, scale 0 to 100
[10] = 125 g ai/ha, scale 0 (no effect) to 100 (complete control), visual, 12 to 14 days, preemergence
[11] = 250 g ai/ha, scale 0-100, preemergence
[12] = 500 g ai/ha, scale 0 to 100 (0 no effect, 100 complete control), visual, 12 to 14 days, preemergence
[13] = 125 g ai/ha, scale 0 to 100 (0 no effect, 100 complete control)
[14] = 250 g ai/ha, scale of 0 to 100, 0 is no effect, 100 is complete control
[15] = scale 0 to 100 (0 no effect, 100 complete control)
[16] = 125 g ai/ha, 0 is no effect, 100 is complete control, preemergence
[17] = 125 g ai/ha, scale 0 (no effect) to 100 (complete control), visual, 12 to 14 days
[18] = preemergence, 125 g ai/ha, 0 to 100 scale, 0 is no effect, 100 is complete control
[19] = 250 g ai/ha, scale 0 to 100 (0 no effect, 100 complete control), visual, 12 to 14 days, preemergence
[20] = 62 g ai/ha, scale 0 to 100 (0 no effect, 100 complete control)
[21] = 500 g ai/ha, scale 0 to 100, 0 no effect, 100 complete control
[22] = Postemergence, 500 g ai/ha, scale 0 (no effect) to 100 (complete control)
[23] = postemergence, 125 g ai/ha, scale 0 to 100
[24] = postemergence, 62 g ai/ha, scale 0 to 100

With `CCN(C)C(=O)c1ccc(F)c(NC(=O)C2CC(C(C)(C)C)=NN2CC)c1` (racemic) [Compound 307] the “Plant response rating, Sunflower” value ([1]; 62 g ai/ha, scale 0 to 100) was 0, the “Plant response rating, Sunflower” value ([1]; 250 g ai/ha, scale 0-100) was 60 and the “Plant response rating, Sunflower” value [1, 5] was 60. The “Lambsquarters plant response rating (0 to 100 scale)” value (lambsquarters [2]; 125 g ai/ha, 0 = no effect, 100 = complete control, preemergence) was 100, the “Lambsquarters plant response rating” value (lambsquarters [2]; [6]) was 60 and the “Plant response rating, Lambsquarters” value (lambsquarters [2]; [7]) was 100. For the same compound, the “Lambsquarters plant response rating” value (lambsquarters [2]; [8]) was 80, the “Plant response rating, Lambsquarters” value (lambsquarters [3]; [9]) was 100 and the “Plant response rating, Lambsquarters” value (lambsquarters [3]; [10]) was 100. The “Plant response rating, Lambsquarters” value (lambsquarters [3]; [11]) was 100, the “Plant response rating, Lambsquarters” value (lambsquarters [3]; [12]) was 100 and the “Sedge, Umbrella plant response rating” value ([4]; 62 g ai/ha, scale 0 to 100) was 40. For the same compound, the “Sedge, Umbrella plant response rating” value [4, 13] was 70, the “Sedge, Umbrella plant response rating” value [4, 14] was 80 and the “Plant response rating, Sedge, Umbrella” value [4, 15] was 85. The “Plant response rating, Johnsongrass” value (johnsongrass; [9]) was 60, the “Plant response rating, Johnsongrass” value (johnsongrass; [10]) was 80 and the “Plant response rating, Johnsongrass” value (johnsongrass; [11]) was 90. For the same compound, the “Plant response rating, Johnsongrass” value (johnsongrass; [12]) was 100.

For `CCC1=NN(C(C)(C)C)CC1C(=O)Nc1cc(C(=O)N(C)C)ccc1F` (racemic) [Compound 343], the “Plant response rating, Sunflower” value ([1]; 62 g ai/ha, scale 0 to 100) was 10, the “Plant response rating (0 = no effect, 100 = complete control), Sunflower” value ([1]; 125 g ai/ha) was 75 and the “Plant response rating, Sunflower” value ([1]; 250 g ai/ha, scale 0-100) was 80. For the same compound, the “Plant response rating, Sunflower” value [1, 5] was 100, the “Plant response rating (0 to 100 scale), Lambsquarters” value (lambsquarters [2]; [16]) was 90 and the “Lambsquarters plant response rating” value (lambsquarters [2]; [6]) was 40. The “Plant response rating, Lambsquarters” value (lambsquarters [2]; [7]) was 100, the “Lambsquarters plant response rating” value (lambsquarters [2]; [8]) was 100 and the “Plant response rating, Lambsquarters” value (lambsquarters [3]; [9]) was 100. For the same compound, the “Plant response rating (0 = no effect, 100 = complete control), Lambsquarters” value (lambsquarters [3]; 125 g ai/ha, preemergence) was 100, the “Plant response rating, Lambsquarters” value (lambsquarters [3]; [11]) was 100 and the “Plant response rating, Lambsquarters” value (lambsquarters [3]; [12]) was 100. The “Sedge, Umbrella plant response rating” value ([4]; 62 g ai/ha, scale 0 to 100) was 20, the “Sedge, Umbrella plant response rating” value [4, 13] was 40 and the “Sedge, Umbrella plant response rating” value [4, 14] was 80. The “Plant response rating, Sedge, Umbrella” value [4, 15] was 90, the “Plant response rating, Johnsongrass” value (johnsongrass; [9]) was 70 and the “Plant response rating (0 = no effect, 100 = complete control), Johnsongrass” value (johnsongrass; 125 g ai/ha, preemergence) was 80. For the same compound, the “Plant response rating, Johnsongrass” value (johnsongrass; [11]) was 100 and the “Plant response rating, Johnsongrass” value (johnsongrass; [12]) was 100.

`CCN(C)C(=O)c1cccc(NC(=O)c2cc(C(C)(C)C)nn2CC)c1` [Compound 48] was tested, and the “Plant response rating (0 = no effect, 100 = complete control), Sunflower” value ([1]; 62 g ai/ha) was 0, the “Plant response rating, Sunflower” value [1, 17] was 0 and the “Plant response rating, Sunflower” value ([1]; 250 g ai/ha, scale 0 to 100 (0 no effect, 100 complete control), visual, 12 to 14 days) was 0. The “Sunflower plant response rating” value ([1]; 500 g ai/ha) was 0, the “Lambsquarters plant response rating” value (lambsquarters [2]; Postemergence, 125 g ai/ha, scale 0 (no effect) to 100 (complete control)) was 60 and the “Plant response rating, Lambsquarters” value (lambsquarters [2]; Postemergence, 500 g ai/ha, visual rating after 13 to 15 days, scale 0 (no effect) to 100 (complete control)) was 90. For the same compound, the “Lambsquarters plant response rating” value (lambsquarters [2]; Preemergence, 500 g ai/ha, scale 0 to 100) was 90, the “Plant response rating, Lambsquarters” value (lambsquarters [2]; [18]) was 90 and the “Plant response rating (0 = no effect, 100 = complete control), Lambsquarters” value (lambsquarters [3]; 62 g ai/ha, preemergence) was 85. The “Plant response rating, Lambsquarters” value (lambsquarters [3]; [10]) was 95, the “Plant response rating, Lambsquarters” value (lambsquarters [3]; [19]) was 95 and the “Lambsquarters plant response rating” value (lambsquarters [3]; 500 g ai/ha) was 95. For the same compound, the “Sedge, Umbrella plant response rating” value ([4]; 16 g ai/ha, scale 0 to 100) was 0, the “Sedge, Umbrella plant response rating” value ([4]; 31 g ai/ha, scale 0 to 100) was 0 and the “Sedge, Umbrella plant response rating” value [4, 20] was 60. The “Sedge, Umbrella plant response rating” value ([4]; 125 g ai/ha, scale of 0 to 100, 0 is no effect, 100 is complete control) was 60, the “Plant response rating (0 = no effect, 100 = complete control), Johnsongrass” value (johnsongrass; 62 g ai/ha, preemergence) was 10 and the “Plant response rating, Johnsongrass” value (johnsongrass; [10]) was 20. For the same compound, the “Plant response rating, Johnsongrass” value (johnsongrass; [19]) was 50 and the “Johnsongrass plant response rating” value (johnsongrass; [21]) was 85.

For `CCn1nc(C(C)(C)C)cc1C(=O)Nc1cccc(C(N)=O)n1` [Compound 162, 6-[[[3-(1,1-dimethylethyl)-1-ethyl-1H-pyrazol-5-yl]carbonyl]amino]-2-pyridinecarboxamide], the “Plant response rating, Sunflower” value ([1]; 62 g ai/ha, scale 0 to 100) was 0, the “Plant response rating, Sunflower” value [1, 17] was 15 and the “Sunflower plant response rating” value ([1]; 500 g ai/ha) was 90. For the same compound, the “Plant response rating, Lambsquarters” value (lambsquarters [2]; 500 g ai/ha, visual rating 0-100, 0 no effect, 100 complete control, preemergence) was 100, the “Lambsquarters plant response rating” value (lambsquarters [2]; postemergence, 125 g ai/ha, visual rating, scale 0 (no effect) to 100 (complete control)) was 80 and the “Lambsquarters plant response rating” value (lambsquarters [2]; postemergence, 500 g ai/ha, visual rating, scale 0 (no effect) to 100 (complete control)) was 90. For the same compound, the “Plant response rating, Lambsquarters” value (lambsquarters [2]; [18]) was 100, the “Plant response rating, Lambsquarters” value (lambsquarters [3]; [9]) was 80 and the “Plant response rating, Lambsquarters” value (lambsquarters [3]; [10]) was 95. For the same compound, the “Lambsquarters plant response rating” value (lambsquarters [3]; 500 g ai/ha) was 100, the “Sedge, Umbrella plant response rating” value [4, 20] was 70 and the “Sedge, Umbrella plant response rating” value [4, 14] was 75. The “Plant response rating, Johnsongrass” value (johnsongrass; [9]) was 65, the “Plant response rating, Johnsongrass” value (johnsongrass; [10]) was 80 and the “Johnsongrass plant response rating” value (johnsongrass; [21]) was 95.

For `CCOC(=O)c1cccc(NC(=O)c2nn(C(C)(C)CC)nc2CC)c1` [Compound 375], the “Plant response rating, Sunflower” value ([1]; 62 g ai/ha, scale 0 to 100) was 0, the “Plant response rating (0 = no effect, 100 = complete control), Sunflower” value ([1]; 125 g ai/ha) was 0 and the “Plant response rating, Sunflower” value ([1]; 250 g ai/ha, scale 0-100) was 0. The “Plant response rating (0 to 100 scale), Lambsquarters” value (lambsquarters [2]; [16]) was 50, the “Lambsquarters plant response rating” value (lambsquarters [2]; [6]) was 20 and the “Lambsquarters plant response rating” value (lambsquarters [2]; [22]) was 40. For the same compound, the “Plant response rating, Lambsquarters” value (lambsquarters [3]; [9]) was 5, the “Plant response rating (0 = no effect, 100 = complete control), Lambsquarters” value (lambsquarters [3]; 125 g ai/ha, preemergence) was 10 and the “Plant response rating, Lambsquarters” value (lambsquarters [3]; [11]) was 90. The “Plant response rating, Lambsquarters” value (lambsquarters [3]; [23]) was 40, the “Plant response rating, Lambsquarters” value (lambsquarters [3]; [24]) was 10 and the “Plant response rating, Johnsongrass” value (johnsongrass; [9]) was 0. For the same compound, the “Plant response rating (0 = no effect, 100 = complete control), Johnsongrass” value (johnsongrass; 125 g ai/ha, preemergence) was 5, the “Plant response rating, Johnsongrass” value (johnsongrass; [11]) was 5 and the “Plant response rating, Johnsongrass” value (johnsongrass; Postemergence, 250 g ai/ha, scale 0 to 100, 0 no effect, 100 complete control) was 10. For the same compound, the “Plant response rating, Johnsongrass” value (johnsongrass; [23]) was 5 and the “Plant response rating, Johnsongrass” value (johnsongrass; [24]) was 5.

For `C=CCNC(=O)c1cccc(NC(=O)c2nn(C(C)(C)C)nc2CC)c1` [Compound 414], the “Plant response rating, Sunflower” value ([1]; 62 g ai/ha, scale 0 to 100) was 0, the “Plant response rating (0 = no effect, 100 = complete control), Sunflower” value ([1]; 125 g ai/ha) was 0 and the “Plant response rating, Sunflower” value [1, 5] was 0. For the same compound, the “Plant response rating (0 to 100 scale), Lambsquarters” value (lambsquarters [2]; [16]) was 100, the “Lambsquarters plant response rating” value (lambsquarters [2]; [22]) was 100 and the “Lambsquarters plant response rating” value (lambsquarters [2]; [23]) was 80. The “Plant response rating, Lambsquarters” value (lambsquarters [3]; [9]) was 95, the “Plant response rating (0 = no effect, 100 = complete control), Lambsquarters” value (lambsquarters [3]; 125 g ai/ha, preemergence) was 95 and the “Plant response rating, Lambsquarters” value (lambsquarters [3]; [11]) was 95. For the same compound, the “Plant response rating, Lambsquarters” value (lambsquarters [3]; [12]) was 100, the “Plant response rating, Johnsongrass” value (johnsongrass; [9]) was 95 and the “Plant response rating (0 = no effect, 100 = complete control), Johnsongrass” value (johnsongrass; 125 g ai/ha, preemergence) was 95. For the same compound, the “Plant response rating, Johnsongrass” value (johnsongrass; [11]) was 100 and the “Plant response rating, Johnsongrass” value (johnsongrass; [12]) was 100.

Source: patent US20060069132A1, “Azolecarboxamide herbicides” (priority 2004, published 2006)
